Among the data in patent publication US12673944B2, “Compounds having inhibitory activity against glucosylceramide synthase or pharmaceutically acceptable salt thereof, processes for preparing the same, and pharmaceutical compositions comprising the same” (YUHAN CORPORATION, priority 2019, dated 2026) are IC50 values, retold here.

The test system of assay [1] is GM1 production in Jurkat cells. Nature of the assay: cells. Format: cell-based. The settings on record: Homo sapiens, Jurkat, 72 h.
For assay [2], the target named is T1, glucosylceramide synthase (GCS) (Homo sapiens, UniProt Q16739).
T1 construct: The obtained supernatant was used; host or cells: A549 cells (lysate supernatant after sonication)
T1 sequence (Q16739 1-394): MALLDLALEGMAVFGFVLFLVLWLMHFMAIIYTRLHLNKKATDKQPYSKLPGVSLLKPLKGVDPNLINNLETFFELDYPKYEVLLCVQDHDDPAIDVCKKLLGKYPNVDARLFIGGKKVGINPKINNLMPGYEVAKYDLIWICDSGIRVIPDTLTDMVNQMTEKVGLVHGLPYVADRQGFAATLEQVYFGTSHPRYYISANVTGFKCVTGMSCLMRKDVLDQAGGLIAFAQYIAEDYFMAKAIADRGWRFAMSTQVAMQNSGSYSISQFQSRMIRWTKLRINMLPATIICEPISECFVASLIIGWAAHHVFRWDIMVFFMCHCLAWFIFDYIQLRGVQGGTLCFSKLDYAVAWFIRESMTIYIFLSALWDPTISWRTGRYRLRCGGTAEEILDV
Nature of the assay: GCS enzyme inhibition assay (A549 cell lysate, NBD C6-ceramide, HPLC fluorescence). To be noted: inhibitory activity against GCS, 37° C., 90 minutes. The class given is biochemical. Here is the method: Ibiglustat, known as a GCS inhibitor, was used as a control.
After the cells attached to the culture dish were washed with phosphate buffered saline (PBS), the cells were scraped off with a cell scraper and then centrifuged (4000 rpm, 3 min, 4° C.) to collect the cells in a 50 ml tube. The cell pellets were suspended in a lysis buffer (50 mM HEPES, pH 7.3, containing 1× the protease/phosphatase inhibitor cocktail), lysed by sonication, and then the lysate was centrifuged (13000 rpm, 10 min, 4° C.). The obtained supernatant was used for the quantitative analysis of proteins. The amount of proteins was measured using the BCA protein assay kit, using bovine serum albumin as a standard.
Enzymatic reactions were initiated by sequentially adding the following reaction materials to a 96 deep-well plate. Thereafter, the enzymatic reactions were performed at 37° C. for 90 minutes.
The enzymatic reactions were stopped by adding 100 μl of chloroform/methanol (2:1, v/v). After vortexing for 15 seconds, each mixture was centrifuged (4000 rpm, 10 min, 18° C.). The lower layer (50 μl) was transferred to a new 96 deep-well plate and dried with a reduced concentrator.
Data analysis was performed by the following equations. % Area(Sample)=Area(GlcCer)/[Area(Cer)+Area(GlcCer)]×100 % GCS activity=[Area(Sample)−Area(ibiglustat)]/[Area(DMSO)−Area(ibiglustat)]×100

Take `O=C(NC1CCOc2cc(-c3cc(Cl)cc(Cl)c3)ccc21)O[C@@H]1CN2CCC1CC2` (stereo partly drawn) [Example 29, (S)-quinuclidin-3-yl (7-(3,5-dichlorophenyl)chroman-4-yl)carbamate]: the results for the IC50 in assay [1] and in assay [2] were 12.4 nM and 2.28 nM, respectively.

`O=C(NC1CCOc2cc(-c3ccc(F)c(F)c3F)ccc21)O[C@@H]1CN2CCC1CC2` (stereo partly drawn) [Example 30, (S)-quinuclidin-3-yl (7-(2,3,4-trifluorophenyl)chroman-4-yl)carbamate]: the IC50 came out at 48.2 nM in assay [1] and 3.92 nM in assay [2].

As for `O=C(NC1CCOc2cc(-c3cc(F)c(F)cc3F)ccc21)O[C@@H]1CN2CCC1CC2` (stereo partly drawn) [Example 31, (S)-quinuclidin-3-yl (7-(2,4,5-trifluorophenyl)chroman-4-yl)carbamate], the IC50 came to 27.6 nM in assay [1] and 3.26 nM in assay [2].

Consider `O=C(NC1CCOc2cc(-c3ccc(OC(F)F)cc3)ccc21)O[C@@H]1CN2CCC1CC2` (stereo partly drawn) [Example 32, (S)-quinuclidin-3-yl (7-(4-(difluoromethoxy)phenyl)chroman-4-yl)carbamate], for which the IC50 came to 48.6 nM in assay [1] and 3.34 nM in assay [2].

For `O=C(NC1CCOc2cc(-c3ccc(F)c(C(F)(F)F)c3)ccc21)O[C@@H]1CN2CCC1CC2` (stereo partly drawn) [Example 33, (S)-quinuclidin-3-yl (7-(4-fluoro-3-(trifluoromethyl)phenyl)chroman-4-yl)carbamate], the IC50 turned out to be 10.8 nM in assay [1] and 1.43 nM in assay [2].

As to `O=C(NC1CCOc2cc(-c3cc(Cl)cc(C(F)(F)F)c3)ccc21)O[C@@H]1CN2CCC1CC2` (stereo partly drawn) [Example 34, (S)-quinuclidin-3-yl (7-(3-chloro-5-(trifluoromethyl)phenyl)chroman-4-yl)carbamate], the IC50 in assay [1] worked out at 5.97 nM; in assay [2], 1.97 nM.

With `O=C(NC1CCOc2cc(-c3ccc(C4CC4)cc3)ccc21)O[C@@H]1CN2CCC1CC2` (stereo partly drawn) [Example 35, (S)-quinuclidin-3-yl (7-(4-cyclopropylphenyl)chroman-4-yl)carbamate], the values for the IC50 in assay [1] and in assay [2] were 5.44 nM and 2.77 nM, respectively.

For the molecule `O=C(NC1CCOc2cc(-c3ccc4c(c3)OC(F)(F)O4)ccc21)O[C@@H]1CN2CCC1CC2` (stereo partly drawn) [Example 36, (S)-quinuclidin-3-yl (7-(2,2-difluorobenzo[d][1,3]dioxol-5-yl)chroman-4-yl)carbamate], the concentration for half-maximal inhibition (IC50) amounted to 11.1 nM in assay [1] and 1.53 nM in assay [2].

For the molecule `O=C(NC1CCOc2cc(-c3ccc4c(c3)OCCO4)ccc21)O[C@@H]1CN2CCC1CC2` (stereo partly drawn) [Example 37, (S)-quinuclidin-3-yl (7-(2,3-dihydrobenzo[b][1,4]dioxin-6-yl)chroman-4-yl)carbamate], the values for the IC50 in assay [1] and in assay [2] were 9.47 nM and 1.4 nM, respectively.

With `O=C(NC1CCOc2cc(C3=CCCO3)ccc21)O[C@@H]1CN2CCC1CC2` (stereo partly drawn) [Example 38, (S)-quinuclidin-3-yl (7-(2,3-dihydrofuran-5-yl)chroman-4-yl)carbamate], the results for the IC50 in assay [1] and in assay [2] were 14.5 nM and 3.02 nM, respectively.

Consider `N#Cc1cccc(-c2ccc3c(c2)OCCC3NC(=O)O[C@@H]2CN3CCC2CC3)c1` (stereo partly drawn) [Example 39, (S)-quinuclidin-3-yl (7-(3-cyanophenyl)chroman-4-yl)carbamate], for which the IC50 stood at 7.73 nM in assay [1] and 1.82 nM in assay [2].

With `N#Cc1ccccc1-c1ccc2c(c1)OCCC2NC(=O)O[C@@H]1CN2CCC1CC2` (stereo partly drawn) [Example 40, (S)-quinuclidin-3-yl (7-(2-cyanophenyl)chroman-4-yl)carbamate], the IC50 came to 19.7 nM in assay [1] and 3.78 nM in assay [2].

As for `CN(C)c1cccc(-c2ccc3c(c2)OCCC3NC(=O)O[C@@H]2CN3CCC2CC3)c1` (stereo partly drawn) [Example 41, (S)-quinuclidin-3-yl (7-(3-(dimethylamino)phenyl)chroman-4-yl)carbamate], the IC50 in assay [1] came out at 0.45 nM; in assay [2], 0.52 nM.

As for `O=C(NC1CCOc2cc(-c3cc4ccccc4s3)ccc21)O[C@@H]1CN2CCC1CC2` (stereo partly drawn) [Example 42, (S)-quinuclidin-3-yl (7-(benzo[b]thiophen-2-yl)chroman-4-yl)carbamate], the IC50 is 34.1 nM in assay [1] and 14 nM in assay [2].

Turning to `O=C(NC1CCOc2cc(-c3coc4ccccc34)ccc21)O[C@@H]1CN2CCC1CC2` (stereo partly drawn) [Example 43, (S)-quinuclidin-3-yl (7-(benzofuran-3-yl)chroman-4-yl)carbamate], the IC50 turned out to be 0.02 nM in assay [1] and 0.58 nM in assay [2].

Regarding `O=C(NC1CCOc2cc(-c3cc4ccccc4o3)ccc21)O[C@@H]1CN2CCC1CC2` (stereo partly drawn) [Example 44, (S)-quinuclidin-3-yl (7-(benzofuran-2-yl)chroman-4-yl)carbamate], the IC50 was determined as 15.6 nM in assay [1] and 9.17 nM in assay [2].

Regarding `O=C(NC1CCOc2cc(-c3ccc4cc[nH]c4c3)ccc21)O[C@@H]1CN2CCC1CC2` (stereo partly drawn) [Example 45, (S)-quinuclidin-3-yl (7-(1H-indol-6-yl)chroman-4-yl)carbamate], the IC50 was 26.2 nM in assay [1] and 4.13 nM in assay [2].

As to `O=C(NC1CCOc2cc(-c3c[nH]c4ccccc34)ccc21)O[C@@H]1CN2CCC1CC2` (stereo partly drawn) [Example 46, (S)-quinuclidin-3-yl (7-(1H-indol-3-yl)chroman-4-yl)carbamate], the values for the IC50 in assay [1] and in assay [2] were 20.5 nM and 4.08 nM, respectively.

As for `O=C(NC1CCOc2cc(-c3cccc4cc[nH]c34)ccc21)O[C@@H]1CN2CCC1CC2` (stereo partly drawn) [Example 47, (S)-quinuclidin-3-yl (7-(1H-indol-7-yl)chroman-4-yl)carbamate], the IC50 in assay [1] stood at 10.5 nM; in assay [2], 2.55 nM.

On to `O=C(NC1CCOc2cc(-c3cccc4[nH]ncc34)ccc21)O[C@@H]1CN2CCC1CC2` (stereo partly drawn) [Example 48, (S)-quinuclidin-3-yl (7-(1H-indazol-4-yl)chroman-4-yl)carbamate], for which the values for the IC50 in assay [1] and in assay [2] were 42 nM and 6.27 nM, respectively.

Consider `O=C(NC1CCOc2cc(-c3cccc4cn[nH]c34)ccc21)O[C@@H]1CN2CCC1CC2` (stereo partly drawn) [Example 49, (S)-quinuclidin-3-yl (7-(1H-indazol-7-yl)chroman-4-yl)carbamate], for which the IC50 worked out at 12.3 nM in assay [1] and 3.8 nM in assay [2].

In the case of `Cn1ncc2ccc(-c3ccc4c(c3)OCCC4NC(=O)O[C@@H]3CN4CCC3CC4)cc21` (stereo partly drawn) [Example 50, (S)-quinuclidin-3-yl (7-(1-methyl-1H-indazol-6-yl)chroman-4-yl)carbamate], the IC50 in assay [1] was determined as 25.9 nM; in assay [2] it was 3.98 nM.

As to `Cn1ncc2c(-c3ccc4c(c3)OCCC4NC(=O)O[C@@H]3CN4CCC3CC4)cccc21` (stereo partly drawn) [Example 51, (S)-quinuclidin-3-yl (7-(1-methyl-1H-indazol-4-yl)chroman-4-yl)carbamate], the results for the IC50 in assay [1] and in assay [2] were 4.99 nM and 1.02 nM, respectively.

As for `Cn1c(-c2ccc3c(c2)OCCC3NC(=O)O[C@@H]2CN3CCC2CC3)cc2ccccc21` (stereo partly drawn) [Example 52, (S)-quinuclidin-3-yl (7-(1-methyl-1H-indol-2-yl)chroman-4-yl)carbamate], the IC50 was determined as 24.8 nM in assay [1] and 7.06 nM in assay [2].

For the molecule `O=C(NC1CCOc2cc(-c3cncc4ccccc34)ccc21)O[C@@H]1CN2CCC1CC2` (stereo partly drawn) [Example 53, (S)-quinuclidin-3-yl (7-(isoquinolin-4-yl)chroman-4-yl)carbamate], the IC50 in assay [1] was found to be 2.66 nM; in assay [2], 1.77 nM.

In the case of `O=C(NC1CCOc2cc(-c3cccc4cnccc34)ccc21)O[C@@H]1CN2CCC1CC2` (stereo partly drawn) [Example 54, (S)-quinuclidin-3-yl (7-(isoquinolin-5-yl)chroman-4-yl)carbamate], the IC50 in assay [1] was found to be 14.1 nM; in assay [2] it was 2.14 nM.

For the molecule `O=C(NC1CCOc2cc(-c3cnc4ccccc4c3)ccc21)O[C@@H]1CN2CCC1CC2` (stereo partly drawn) [Example 55, (S)-quinuclidin-3-yl (7-(quinolin-3-yl)chroman-4-yl)carbamate], the IC50 was determined as 22.3 nM in assay [1] and 3.58 nM in assay [2].

Take `O=C(NC1CCOc2cc(-c3cccc4cccnc34)ccc21)O[C@@H]1CN2CCC1CC2` (stereo partly drawn) [Example 56, (S)-quinuclidin-3-yl (7-(quinolin-8-yl)chroman-4-yl)carbamate]: the IC50 in assay [1] came to 6.03 nM; in assay [2], 1.38 nM.

Consider `O=C(NC1CCOc2cc(-c3ccc4ccncc4c3)ccc21)O[C@@H]1CN2CCC1CC2` (stereo partly drawn) [Example 57, (S)-quinuclidin-3-yl (7-(isoquinolin-7-yl)chroman-4-yl)carbamate], for which the values for the IC50 in assay [1] and in assay [2] were 36.6 nM and 3.52 nM, respectively.

As to `O=C(NC1CCOc2cc(-c3ccc4c(c3)OCCCO4)ccc21)O[C@@H]1CN2CCC1CC2` (stereo partly drawn) [Example 58, (S)-quinuclidin-3-yl (7-(3,4-dihydro-2H-benzo[b][1,4]dioxepin-7-yl)chroman-4-yl)carbamate], the IC50 was found to be 21.2 nM in assay [1] and 2 nM in assay [2].

As a reminder, the IC50 is the midpoint of a concentration-inhibition curve. A high value points to a need for much substance.
